Measured values: patent US4056615A, “Lucknomycin and process for producing same” (U C B Societe Anonyme, priority 1975, dated 1977)
Converted amounts (≈) assume the structure as drawn. “Also recorded” adds a separate entry of the source. Like-named read-outs stand apart in the source and are kept apart here.

What was measured:
Trichomoras vaginalis = experiment: MIC, complete inhibition of growth, Trichomonas vaginalis; assay type: cell-based
Description: (§1) Lucknomycin is introduced at different dilutions into a peptonedextrose medium inoculated with the organism which is to be tested. After incubation for from 2 to 5 days at 28° C., the number of microgrammes of antibiotic per milliliter of medium is determined which must be used to obtain complete inhibition of growth (MIC) of the organism in question. In order to better point out the antifungal activity of Lucknomycin, it is compared with that of other known antifungal antibiotics.

Aspergillus niger = experiment: MIC, complete inhibition of growth, Aspergillus niger; assay type: cell-based
Description: as §1

Candida albicans 11651 = experiment: MIC, complete inhibition of growth, Candida albicans 11651; assay type: cell-based
Description: as §1

Trichomonas vaginalis [1] = experiment: Anti-Trichomonas vaginalis activity, subcutaneous Trichomonas vaginalis abscess in mice; assay type: in vivo; details: subcutaneous injections at the level of the abscess
Text: This test is made in mice on a subcutaneous Trichomonas vaginalis abscess. Subcutaneous injections at the level of the abscess of a suspension (or solution) of the following products at various concentrations are used to determine the ED50.

Candida albicans = experiment: Anti-Candida albicans activity, experimental Candida albicans vaginitis in female rats; assay type: in vivo; details: per tablet: lucknomycin 5 mg., clotrimazole 20 mg., nystatin 4 mg.
Text: The test is made in female rats on experimental Candida albicans vaginitis.

[2] = test system: Trichophyton mentagrophytes; experiment: MIC, complete inhibition of growth, Trichophyton mentagrophytes; assay type: cell-based; details: for MIC: peptone-dextrose medium, 2 to 5 days at 28° C.
Description: as §1

Trichophyton acuminatum = experiment: MIC, complete inhibition of growth, Trichophyton acuminatum; assay type: cell-based; details: for MIC: peptone-dextrose medium, 2 to 5 days at 28° C.
Description: as §1

Staphylococcus aureus = experiment: Antibacterial spectrum, Staphylococcus aureus; assay type: cell-based; details: 10 mcg/ml, one day at 37° C.
Description: as §1
(§2) The experimental conditions are the same as for the determination of the fungal spectrum, except that the incubation time is one day at 37° C.

Klebsiella pneumoniae = experiment: Antibacterial spectrum, Klebsiella pneumoniae; assay type: cell-based; details: 10 mcg/ml, one day at 37° C.
Description: as §1, §2

Candida krusei = experiment: MIC, complete inhibition of growth, Candida krusei; assay type: cell-based
Description: as §1

[3] = test system: Lactobacillus acidophilus; experiment: Antibacterial spectrum, Lactobacillus acidophilus; assay type: cell-based; details: 10 mcg/ml, one day at 37° C.
Description: as §1, §2

Proteus mirabilis = experiment: Antibacterial spectrum, Proteus mirabilis; assay type: cell-based; details: 10 mcg/ml, one day at 37° C.
Description: as §1, §2

Trichomonas vaginalis [4] = experiment: Antiprotozoal activity, killing of a culture in full growth of Trichomonas vaginalis; assay type: cell-based; details: 0.5 mcg./ml.; within about 30 minutes
Description: A concentration of 0.5 mcg./ml. of the antibiotic kills 50% of individuals of a culture in full growth of Trichomonas vaginalis within a period of about 30 minutes.

Escherichia coli = experiment: Antibacterial spectrum, Escherichia coli; assay type: cell-based; details: 10 mcg/ml, one day at 37° C.
Description: as §1, §2

Streptococcus faecalis = experiment: Antibacterial spectrum, Streptococcus faecalis; assay type: cell-based; details: 10 mcg/ml, one day at 37° C.
Description: as §1, §2

Pseudomonas aeruginosa = experiment: Antibacterial spectrum, Pseudomonas aeruginosa; assay type: cell-based; details: 10 mcg/ml, one day at 37° C.
Description: as §1, §2

Solubility = assay type: physicochemical
Candida tropicalis = experiment: MIC, complete inhibition of growth, Candida tropicalis; assay type: cell-based
Description: as §1

mice = experiment: Toxicity, lethal dose LD50 in mice; assay type: in vivo
Text: Lethal dose LD50 in mice in mg./kg. body weight:

[5] = peptone-dextrose medium, 2 to 5 days at 28° C., read-out: MIC
[6] = peptone-dextrose medium, 2 to 5 days at 28° C.
[7] = Candida albicans 11651, peptone-dextrose medium, 2 to 5 days at 28° C.

## Cc1ncc([N+](=O)[O-])n1CCO [Metronidazole]
Trichomoras vaginalis; [5]
  MIC: 0.5 µg/mL (≈ 2.92 µM)

## C[C@@H]1C/C=C/C=C/C=C/C=C/[C@H](O[C@@H]2O[C@H](C)[C@@H](O)[C@H](N)[C@@H]2O)C[C@@H]2O[C@](O)(C[C@@H](O)C[C@H]3O[C@@H]3/C=C/C(=O)O1)C[C@H](O)[C@H]2C(=O)O [Pimaricin]
Aspergillus niger; [5]
  MIC: 2.5 µg/mL (≈ 3.76 µM)
Trichomoras vaginalis; [5]
  MIC: > 10 µg/mL
Candida albicans 11651; Candida albicans 11651, peptone-dextrose medium, 2 to 5 days at 28° C., read-out: MIC
  MIC: 5 µg/mL (≈ 7.51 µM)

## C[C@@H]1[C@H](O)[C@@H](C)/C=C/C=C/C=C/C=C/C=C/C=C/C=C/[C@H](O[C@@H]2O[C@H](C)[C@@H](O)[C@H](N)[C@@H]2O)C[C@@H]2O[C@](O)(C[C@@H](O)C[C@@H](O)[C@H](O)CC[C@@H](O)C[C@@H](O)CC(=O)O[C@H]1C)C[C@H](O)[C@H]2C(=O)O [Amphotericin B]
Aspergillus niger
  MIC: 0.6 µg/mL (≈ 0.649 µM)
Trichomoras vaginalis
  MIC: > 10 µg/mL
Candida albicans 11651; Candida albicans, 11651
  MIC: 1.25 µg/mL (≈ 1.35 µM)

## Candicidin
Trichomonas vaginalis [1]
  ED50 on Trichomonas vaginalis: 24 µg/mL

## Trichomycin
Trichomonas vaginalis [1]
  ED50 on Trichomonas vaginalis: 43 µg/mL

## C[C@@H]1[C@H](O)[C@@H](C)/C=C/C=C/CC/C=C/C=C/C=C/C=C/C(O[C@H]2O[C@H](C)[C@@H](O)[C@H](N)[C@@H]2O)CC2O[C@](O)(CC(O)C(O)CCC(O)CC(O)CC(O)CC(=O)O[C@H]1C)CC(O)C2C(=O)O (some centres unmarked) [Nystatin, nystatin]
Candida albicans; after 4 administrations
  Number of cured rats/infested rats: 5/11
Candida albicans; after 8 administrations
  Number of cured rats/infested rats: 8/11
Candida albicans; after 12 administrations
  Number of cured rats/infested rats: 9/11
Aspergillus niger; [6]
  MIC: 5 µg/mL (≈ 5.4 µM)
Trichomoras vaginalis; [6]
  MIC: > 10 µg/mL
Candida albicans 11651; [7]
  MIC: 2.5 µg/mL (≈ 2.7 µM)
[2]
  MIC: 25 µg/mL (≈ 27 µM)
Trichophyton acuminatum
  MIC: 25 µg/mL (≈ 27 µM)

## Clc1ccccc1C(c1ccccc1)(c1ccccc1)n1ccnc1 [clotrimazole]
Candida albicans; after 4 administrations
  Number of cured rats/infested rats: 17/18
Candida albicans; after 8 administrations
  Number of cured rats/infested rats: 16/16
Candida albicans; after 12 administrations
  Number of cured rats/infested rats: 17/17

## CNc1ccc(C(=O)CC(O)C2C/C=C/C=C/C=C/C=C/C=C/C=C/C=C/C(OC3OC(C)C(O)C(N)C3O)CC(O)C(C(=O)O)C(O)CC(O)CC(O)CC(O)CC(O)CC(O)CC(O)CC(O)CC(=O)O2)cc1 (centres unmarked) [Lucknomycin]
Staphylococcus aureus
  inhibiting activity: inactive; also recorded: does not exert an inhibiting activity
Klebsiella pneumoniae
  inhibiting activity: inactive; also recorded: does not exert an inhibiting activity
Candida krusei
  activity against growth (in words): effective
Candida krusei; [6]
  MIC: 0.2 to 0.4 µg/mL
Candida albicans; after 4 administrations
  Number of cured rats/infested rats: 14/16
Candida albicans; after 8 administrations
  Number of cured rats/infested rats: 13/13
Candida albicans; after 12 administrations
  Number of cured rats/infested rats: 12/12
[3]
  inhibiting activity: inactive; also recorded: does not exert an inhibiting activity
Proteus mirabilis
  inhibiting activity: inactive; also recorded: does not exert an inhibiting activity
Aspergillus niger
  activity against growth (in words): effective
Aspergillus niger; [6]
  MIC: 0.5 µg/mL (≈ 0.471 µM)
Trichomonas vaginalis [4]
  individuals of a culture in full growth killed: 50%
Trichomoras vaginalis
  activity (in words): effective
Trichomoras vaginalis; [6]
  MIC: < 0.05 µg/mL
Escherichia coli
  inhibiting activity: inactive; also recorded: does not exert an inhibiting activity
Streptococcus faecalis
  inhibiting activity: inactive; also recorded: does not exert an inhibiting activity
Candida albicans 11651; Candida albicans
  activity against growth (in words): effective
Candida albicans 11651; [7]
  MIC: 0.1 to 0.2 µg/mL
Pseudomonas aeruginosa
  inhibiting activity: inactive; also recorded: does not exert an inhibiting activity
[2]
  activity (in words): moderately active
  MIC: 25 µg/mL (≈ 23.6 µM)
Solubility; in 60% methanol, concentrated ethanol (ethanol) and isopropanol
  Solubility: less soluble
Solubility; in benzene, acetone, water, chloroform, absolute ethanol, cyclohexane, ethyl acetate and diethyl ether
  Solubility: insoluble
Solubility; in pyridine, dimethylformamide and dimethylacetamide
  Solubility: soluble
Candida tropicalis
  activity against growth (in words): effective
Candida tropicalis; [6]
  MIC: 0.1 to 0.2 µg/mL
mice; intraperitoneal
  LD50: 5-10 mg./kg. body weight
mice; intravenous
  LD50: 10-20 mg./kg. body weight
mice; oral
  LD50: > 800 mg./kg. body weight
mice; subcutaneous
  LD50: > 800 mg./kg. body weight
Trichomonas vaginalis [1]
  ED50 on Trichomonas vaginalis: 12 µg/mL (≈ 11.3 µM)
Trichophyton acuminatum
  activity (in words): moderately active
  MIC: 12.5 µg/mL (≈ 11.8 µM)
